From US10544146B2, “Bicyclic compounds and their use as antibacterial agents and β-lactamase inhibitors” (priority 2011, dated 2020)

Legend:
Assay type in all cases: cell-based
K. pneumo JMI 2681 = test: MIC, antibacterial and synergistic activity; settings: substance alone
E. coli JMI 11103 = test: MIC, antibacterial and synergistic activity; settings: substance alone
P. aerug JMI 2686 = test: MIC, antibacterial and synergistic activity; settings: substance alone
E. coli ATCC 25922 = test: MIC, antibacterial and synergistic activity
Protocol: (§1) In the Tables 10-12, compounds of the present invention were tested in combination with various antibiotics against metallo β-lactamase producing bacteria.

E. cloacae JMI 36 = test: MIC, antibacterial and synergistic activity; settings: substance alone
Protocol: as §1

K. pneumo JMI 2699 = test: MIC, antibacterial and synergistic activity; settings: substance alone
Protocol: as §1

E. coli JMI 2671 = test: MIC, antibacterial and synergistic activity; settings: substance alone
Protocol: as §1

K. pneumo JMI 2697 = test: MIC, antibacterial and synergistic activity; settings: substance alone
Protocol: as §1

E. coli JMI 10767 = test: MIC, antibacterial and synergistic activity; settings: substance alone
Protocol: as §1

A. baumanii JMI 2659 = test: MIC, antibacterial and synergistic activity; settings: substance alone
Protocol: as §1

K. pneumo JMI 2693 = test: MIC, antibacterial and synergistic activity; settings: substance alone
Protocol: as §1

P. aerug JMI 149 = test: MIC, antibacterial and synergistic activity; settings: substance alone
Protocol: as §1

E. coli JMI 2692 = test: MIC, antibacterial and synergistic activity; settings: substance alone
Protocol: as §1

K. pneumo JMI 4106 = test: MIC, antibacterial and synergistic activity; settings: substance alone
E. coli JMI 2665 = test: MIC, antibacterial and synergistic activity; settings: substance alone
K. pneumo JMI 2674 = test: MIC, antibacterial and synergistic activity; settings: substance alone
[1] = system: metallo β-lactamase producing bacteria; test: MIC in combination with various antibiotics against metallo β-lactamase producing bacteria (Tables 10-12); settings: substance alone
Protocol: as §1

E. coli JMI 10770 = test: MIC, antibacterial and synergistic activity; settings: substance alone
E. coli JMI 10768 = test: MIC, antibacterial and synergistic activity; settings: substance alone
K. pneumo JMI 4088 = test: MIC, antibacterial and synergistic activity; settings: substance alone
K. pneumo JMI 4109 = test: MIC, antibacterial and synergistic activity; settings: substance alone
E. coli JMI 4103 = test: MIC, antibacterial and synergistic activity; settings: substance alone
K. pneumo JMI 2673 = test: MIC, antibacterial and synergistic activity; settings: substance alone
E. coli JMI 4080 = test: MIC, antibacterial and synergistic activity; settings: substance alone

SMILES: CC(C)(O/N=C(\C(=O)N[C@@H]1C(=O)N2C(C(=O)[O-])=C(C[n+]3ccccc3)CS[C@H]12)c1csc(N)n1)C(=O)O [Ceftazidime, ceftazidime]
- MIC alone (K. pneumo JMI 2681; K. pneumo JMI 2681, Oxa-48 (Cpase)): 512 µg/mL
- MIC alone (K. pneumo JMI 2681; K. pneumo JMI 2681, enzyme Oxa-48 (Cpase)): 512 µg/mL
- MIC alone (E. coli JMI 11103; E. coli JMI 11103, CTX-M15 (Intermediate ESBL)): 32 µg/mL
- MIC alone (E. coli JMI 11103; E. coli JMI 11103, enzyme CTX-M15 (Intermediate ESBL)): 32 µg/mL
- MIC alone (P. aerug JMI 2686; P. aerug JMI 2686, KPC-2 (Cpase)): 512 µg/mL
- MIC alone (P. aerug JMI 2686; P. aerug JMI 2686, enzyme KPC-2 (Cpase)): 512 µg/mL
- MIC alone (E. coli ATCC 25922; E. coli ATCC 25922, enzyme Wt; substance alone): 0.25 µg/mL
- MIC alone (E. coli ATCC 25922; E. coli ATCC 25922; enzyme Wt; substance alone): 0.25 µg/mL
- MIC alone (E. cloacae JMI 36; E. cloacae JMI 36, P99): 128 µg/mL
- MIC alone (E. cloacae JMI 36; E. cloacae JMI 36, enzyme P99): 128 µg/mL
- MIC alone (K. pneumo JMI 2699; K. pneumo JMI 2699, VIM-1, CTX-M3): >512 µg/mL
- MIC alone (K. pneumo JMI 2699; K. pneumo JMI 2699, enzyme VIM-1, CTX-M3): >512 µg/mL
- MIC alone (E. coli JMI 2671; E. coli JMI 2671, VIM-19 (Cpase)): 64 µg/mL
- MIC alone (E. coli JMI 2671; E. coli JMI 2671, enzyme VIM-19 (Cpase)): 64 µg/mL
- MIC alone (K. pneumo JMI 2697; K. pneumo JMI 2697, IMP-4 (Cpase)): >512 µg/mL
- MIC alone (K. pneumo JMI 2697; K. pneumo JMI 2697, enzyme IMP-4 (Cpase)): >512 µg/mL
- MIC alone (E. coli JMI 10767; E. coli JMI 10767, Wt): ≤1 µg/mL
- MIC alone (E. coli JMI 10767; E. coli JMI 10767, enzyme Wt): ≤1 µg/mL
- MIC alone (A. baumanii JMI 2659; A. baumanii JMI 2659, Ges-14 (Cpase)): 512 µg/mL
- MIC alone (A. baumanii JMI 2659; A. baumanii JMI 2659, enzyme Ges-14 (Cpase)): 512 µg/mL
- MIC alone (K. pneumo JMI 2693; K. pneumo JMI 2693, NDM-1 (Cpase)): >512 µg/mL
- MIC alone (K. pneumo JMI 2693; K. pneumo JMI 2693, enzyme NDM-1 (Cpase)): >512 µg/mL
- MIC alone (P. aerug JMI 149; P. aerug JMI 149, Bla+++D+): 256 µg/mL
- MIC alone (P. aerug JMI 149; P. aerug JMI 149, enzyme Bla+++D+): 256 µg/mL
- MIC alone (E. coli JMI 2692; E. coli JMI 2692, NDM-1, TEM-1, CTX-M-15): >512 µg/mL
- MIC alone (E. coli JMI 2692; E. coli JMI 2692, enzyme NDM-1, TEM-1, CTX-M-15): >512 µg/mL
- MIC alone (K. pneumo JMI 4106; K. pneumo JMI 4106, KPC-3, TEM-1, SHV-12, SHV-141): >512 µg/mL
- MIC alone (K. pneumo JMI 4106; K. pneumo JMI 4106, enzyme KPC-3, TEM-1, SHV-12, SHV-141): >512 µg/mL
- MIC alone (E. coli JMI 2665; E. coli JMI 2665, CMY-2 (Plasmid Cpase)): 8 µg/mL
- MIC alone (E. coli JMI 2665; E. coli JMI 2665, enzyme CMY-2 (Plasmid Cpase)): 8 µg/mL
- MIC alone (K. pneumo JMI 2674; K. pneumo JMI 2674, CTX-M15 (ESBL)): 512 µg/mL
- MIC alone (K. pneumo JMI 2674; K. pneumo JMI 2674, enzyme CTX-M15 (ESBL)): 512 µg/mL
- MIC alone ([1]; Citrobacter freundii isolate 49469, NDM-1): >256 µg/mL
- MIC alone ([1]; Enterobacter aerogenes isolate 8397, VIM-1): >256 µg/mL
- MIC alone ([1]; Enterobacter aerogenes isolate 47683, VIM-12): 256 µg/mL
- MIC alone ([1]; Enterobacter cloacae isolate 4, VIM-6): 256 µg/mL
- MIC alone ([1]; Enterobacter cloacae isolate 10, IMP-26): >256 µg/mL
- MIC alone ([1]; Enterobacter cloacae isolate 25, IMP-4): >256 µg/mL
- MIC alone ([1]; Enterobacter cloacae isolate 1068, VIM-2): 128 µg/mL
- MIC alone ([1]; Enterobacter cloacae isolate 1280, VIM-5): 64 µg/mL
- MIC alone ([1]; Enterobacter cloacae isolate 1471, VIM-1): >256 µg/mL
- MIC alone ([1]; Enterobacter cloacae isolate 1874, IMP-21): 32 µg/mL
- MIC alone ([1]; Enterobacter cloacae isolate 3686, IMP-1): >256 µg/mL
- MIC alone ([1]; Enterobacter cloacae isolate 53477, NDM-1): >256 µg/mL
- MIC alone ([1]; Escherichia coli isolate 13, IMP-1): 256 µg/mL
- MIC alone ([1]; Escherichia coli isolate 17, NDM-1): >256 µg/mL
- MIC alone ([1]; Escherichia coli isolate 49, NDM-1): >256 µg/mL
- MIC alone ([1]; Escherichia coli isolate 53749, NDM-1): >256 µg/mL
- MIC alone ([1]; Klebsiella oxytoca isolate 24825, IMP-26): >256 µg/mL
- MIC alone ([1]; Klebsiella oxytoca isolate 31141, VIM-23): 128 µg/mL
- MIC alone ([1]; Klebsiella pneumoniae isolate 16, VIM-5): >256 µg/mL
- MIC alone ([1]; Klebsiella pneumoniae isolate 38, NDM-1): >256 µg/mL
- MIC alone ([1]; Providencia stuartii isolate 26582, VIM-1): >256 µg/mL
- MIC alone ([1]; Serratia marcescens isolate 35, IMP-4): 64 µg/mL
- MIC alone ([1]; Serratia marcescens isolate 36098, IMP-19): 128 µg/mL
- MIC alone (E. coli JMI 10770; E. coli JMI 10770, CTX-M15 (Hyper ESBL)): 64 µg/mL
- MIC alone (E. coli JMI 10770; E. coli JMI 10770, enzyme CTX-M15 (Hyper ESBL)): 64 µg/mL
- MIC alone (E. coli JMI 10768; E. coli JMI 10768, CTX-M15 (Weak ESBL)): 8 µg/mL
- MIC alone (E. coli JMI 10768; E. coli JMI 10768, enzyme CTX-M15 (Weak ESBL)): 8 µg/mL
- MIC alone (K. pneumo JMI 4088; K. pneumo JMI 4088, KPC-3 (Cpase)): >512 µg/mL
- MIC alone (K. pneumo JMI 4088; K. pneumo JMI 4088, enzyme KPC-3 (Cpase)): >512 µg/mL
- MIC alone (K. pneumo JMI 4109; K. pneumo JMI 4109, SHV-1, SHV-12): 8 µg/mL
- MIC alone (K. pneumo JMI 4109; K. pneumo JMI 4109, enzyme SHV-1, SHV-12): 8 µg/mL
- MIC alone (E. coli JMI 4103; E. coli JMI 4103, KPC-2, Tem-1, CMY-Type): >512 µg/mL
- MIC alone (E. coli JMI 4103; E. coli JMI 4103, enzyme KPC-2, Tem-1, CMY-Type): >512 µg/mL
- MIC alone (K. pneumo JMI 2673; K. pneumo JMI 2673, CTX-M14 (ESBL)): 32 µg/mL
- MIC alone (K. pneumo JMI 2673; K. pneumo JMI 2673, enzyme CTX-M14 (ESBL)): 32 µg/mL
- MIC alone (E. coli JMI 4080; E. coli JMI 4080, Tem-10): 64 µg/mL
- MIC alone (E. coli JMI 4080; E. coli JMI 4080, enzyme Tem-10): 64 µg/mL
